{"source": "patent US20090068290A1", "about": "“BIFEPRUNOX DOSES FOR TREATING SCHIZOPHRENIA” (priority 2006, published 2009)", "key": {"[1]": {"test": "Clinical laboratory assessments (lipid shifts, thyroid function), Clinical Study Two", "type": "in vivo, human", "method": "Pharmacokinetic (PK) data of bifeprunox in schizophrenic subjects were also assessed and are presented in a separate report (combined with data from study S1543003).\nSubjects who completed this study had the option to continue in the long-term. […] Risperidone-treated subjects were titrated from 2 mg to 6 mg daily over a three-day period and were subsequently maintained at 6 mg/day for the remainder of the treatment period. […] Blood samples were also obtained at Screening/Baseline, Week 3, and Week 6 for clinical laboratory assessments."}, "[2]": {"system": "patients with chronic schizophrenia", "test": "CGI-S score, Clinical Study Four", "type": "in vivo, human", "details": "FAS, ANCOVA; for CGI-S, Adjusted Mean Change from Baseline (LS mean): LOCF; for mean CGI-S scores, time points of statistically significant superiority to PBO: per-visit LOCF analysis", "method": "(§1) METHODOLOGY: This study was a multinational, multicenter, randomized, double-blind, parallel-group, placebo-controlled, fixed-dose study. The study consisted of a 3- to 6-day antipsychotic-free run-in period, after which patients were randomised to 6 months of double-blind treatment with fixed doses of bifeprunox (20 mg/day (BX20) or 30 mg/day (BX30)) or placebo (PBO). Patients allocated to the BX groups were up-titrated from 0.25 mg/day over 7 days (BX20) or 8 days (BX30), and then continued on these doses for the remainder of the study. […] At predetermined time points, blood samples were obtained for drug concentration analysis of BX and its major metabolites (3′- and 4′-sulfate conjugates of BX), and pharmaco-economic assessments were performed."}, "[3]": {"test": "Metabolic syndrome status, Clinical Study Four", "type": "in vivo, human", "details": "6 months", "method": "as §1"}, "[4]": {"test": "Food effect on bifeprunox PK (standard high-fat meal)", "excerpt": "The objective of this study is to assess the pharmacokinetics (PK) of bifeprunox. The PK of bifeprunox in healthy subjects were investigated based on a pooled analysis of PK parameters from 21 clinical pharmacology studies. The pooled analysis included PK profiles after single and multiple doses to 132 and 399 subjects, respectively, and explored the potential effects of age, gender, body weight, and race. In addition, PK in patients with schizophrenia were investigated using a population PK approach based on samples from 376 patients in phase II studies and 434 patients in phase III studies."}, "[5]": {"test": "Excretion of radioactivity after [14C]-labeled bifeprunox", "details": "single oral dose of [14C]-labeled bifeprunox"}}}
{"molecule": "O=c1[nH]c2cccc(N3CCN(Cc4cccc(-c5ccccc5)c4)CC3)c2o1", "note": "[Bifeprunox, 7-[4-([1,1′-biphenyl]-3-ylmethyl)-1-piperazinyl]-2(3H)-benzoxazolone]", "values": [{"measurement": "incidence of N to H shifts in tri-iodine thyronine", "setting": "[1]; Bifeprunox 30 mg", "value": 6, "unit": "%"}, {"measurement": "incidence of N to L shifts in TSH", "setting": "[1]; Bifeprunox 30 mg", "value": 4, "unit": "%"}, {"measurement": "incidence of N to H shifts in tri-iodine thyronine", "setting": "[1]; Bifeprunox 40 mg", "value": 5, "unit": "%"}, {"measurement": "incidence of N to L shifts in TSH", "setting": "[1]; Bifeprunox 40 mg", "value": 5, "unit": "%"}, {"measurement": "shifts in lipids compared with the placebo and risperidone groups", "setting": "[1]; bifeprunox 30, 40 mg, 6 weeks", "value": "lower incidence of N to H shifts in triglycerides, VLDL, and LDL"}, {"measurement": "CGI-S, Adjusted Mean Change from Baseline (LS mean)", "setting": "[2]; Month 6, listed as BX20", "value": "−0.1"}, {"measurement": "CGI-S, Adjusted Mean Change from Baseline (LS mean)", "setting": "[2]; Month 6, listed as BX30", "value": 0.0}, {"measurement": "CGI-S, Adjusted Mean Change from Baseline (LS mean)", "setting": "[2]; Week 6, listed as BX20", "value": "−0.2"}, {"measurement": "CGI-S, Adjusted Mean Change from Baseline (LS mean)", "setting": "[2]; Week 6, listed as BX30", "value": "−0.1"}, {"measurement": "mean CGI-S scores, time points of statistically significant superiority to PBO", "setting": "[2]; listed as BX20", "value": "Months 3, 4, 5, and 6"}, {"measurement": "mean CGI-S scores, time points of statistically significant superiority to PBO", "setting": "[2]; listed as BX30", "value": "Months 5 and 6"}, {"measurement": "effect on patients' status of metabolic syndrome", "setting": "[3]; BX either dose (20 or 30 mg/day)", "value": "no treatment effect"}, {"measurement": "metabolic profile (weight changes, blood lipids, metabolic syndrome)", "setting": "[3]; bifeprunox 20 or 30 mg/day", "value": "A favorable metabolic profile"}, {"measurement": "increase in AUC with a standard high-fat meal", "setting": "[4]; 40 mg dose", "value": 29, "unit": "%"}, {"measurement": "increase in Cmax with a standard high-fat meal", "setting": "[4]; 40 mg dose", "value": 10, "unit": "%"}, {"measurement": "Tmax", "setting": "[4]; human, plasma, oral, 40 mg", "value": 1.5, "unit": "h"}, {"measurement": "radioactivity excreted in the feces", "setting": "[5]", "value": 74, "unit": "%"}, {"measurement": "radioactivity excreted in the urine", "setting": "[5]", "value": 13, "unit": "%"}]}
